Experimental data published in paper PMC4248674 (Arthritis & rheumatology (Hoboken, N.J.), 2014).
Square brackets hold non-standard residues; d marks the D form. Peptide text beside a SMILES is read from it. Cit = NC(=O)NCCC[C@H](N)C(=O)O

Target: HLA-DR0401 protein (Homo sapiens, UniProt P01903+P01911, A100K/A169T/F76Y/I96L/K127E/L162R/M171V/N62H/P40V/Q125Y/R42H/S133A/S149N/S66Y/V115G/V209L/W38E)
Assay: Peptide competition binding assay against biotinylated HA306–318 on HLA-DR0401

`C[C@H](NC(=O)[C@H](C)NC(=O)[C@H](CCCNC(N)=O)NC(=O)[C@H](C)NC(=O)[C@@H]1CCCN1C(=O)[C@H](CCCNC(N)=O)NC(=O)[C@H](C)NC(=O)[C@H](CCCNC(=N)N)NC(=O)[C@H](Cc1ccc(O)cc1)NC(=O)CN)C(=O)N[C@@H](C)C(=O)N[C@H](C(=O)O)[C@@H](C)O` [Cit-Fib 1] (H-GYRA[Cit]PA[Cit]AAAT-OH) gave an IC50 of 8200 nM.

`CC(C)C[C@H](NC(=O)[C@H](CCCNC(N)=O)NC(=O)[C@@H](NC(=O)[C@H](C)NC(=O)[C@H](CO)NC(=O)[C@H](CO)NC(=O)[C@H](CCCNC(N)=O)NC(=O)[C@@H](NC(=O)[C@H](C)NC(=O)[C@H](Cc1ccc(O)cc1)NC(=O)[C@@H](NC(=O)CN)C(C)C)[C@@H](C)O)C(C)C)C(=O)N[C@@H](CCCNC(N)=O)C(=O)N[C@@H](CO)C(=O)N[C@@H](CO)C(=O)N[C@H](C(=O)N1CCC[C@H]1C(=O)NCC(=O)N[C@H](C(=O)N[C@@H](CCCNC(=N)N)C(=O)O)C(C)C)C(C)C` [Cit-Vim 1] (H-GVYAT[Cit]SSAV[Cit]L[Cit]SSVPGVR-OH) gave an IC50 of 1300 nM.

Compound `CC(C)C[C@H](NC(=O)[C@H](CO)NC(=O)[C@H](CC(=O)O)NC(=O)[C@H](CC(C)C)NC(=O)[C@H](CC(N)=O)NC(=O)[C@@H](NC(=O)[C@H](CCC(=O)O)NC(=O)[C@H](CCCNC(N)=O)NC(=O)[C@H](CC(C)C)NC(=O)[C@H](CC(N)=O)NC(=O)[C@H](CC(C)C)NC(=O)[C@H](CO)NC(=O)[C@@H](N)CO)[C@@H](C)O)C(=O)O` [Cit-Vim 2] has an IC50 of 14000 nM.

With `CC[C@H](C)[C@H](NC(=O)[C@H](CCCNC(N)=O)NC(=O)[C@@H](N)CCCCN)C(=O)N[C@@H](C)C(=O)N[C@@H](CCCCN)C(=O)N[C@@H](C)C(=O)N[C@H](C(=O)N[C@@H](CC(N)=O)C(=O)N[C@@H](CCC(=O)O)C(=O)N[C@@H](CCCCN)C(=O)N[C@@H](CO)C(=O)N[C@@H](CS)C(=O)N[C@@H](CC(N)=O)C(=O)N[C@@H](CS)C(=O)N[C@@H](CC(C)C)C(=O)O)C(C)C` [Cit-α-enolase 4] (H-K[Cit]IAKAVNEKSCNCL-OH) the IC50 was 1900 nM.

Work on `CC[C@H](C)[C@H](NC(=O)[C@H](CCCNC(=N)N)NC(=O)[C@@H](N)CCCCN)C(=O)N[C@@H](C)C(=O)N[C@@H](CCCCN)C(=O)N[C@@H](C)C(=O)N[C@H](C(=O)N[C@@H](CC(N)=O)C(=O)N[C@@H](CCC(=O)O)C(=O)N[C@@H](CCCCN)C(=O)N[C@@H](CO)C(=O)N[C@@H](CS)C(=O)N[C@@H](CC(N)=O)C(=O)N[C@@H](CS)C(=O)N[C@@H](CC(C)C)C(=O)O)C(C)C` [α-enolase 4] (H-KRIAKAVNEKSCNCL-OH) yielded an IC50 of 1700 nM.
